Reference: ChEMBL document CHEMBL3046464, “3D quantitative structureactivity relationship for quinoline, benzimidazole and benzofuran-based analogs as phosphodiesterases IV (PDE-IV) inhibitors” (Med Chem Res, 2013)

Biological target: Phosphodiesterase 4 (Homo sapiens, UniProt P27815+Q08499+Q07343+Q08493)
Assay: Inhibition of PDE4 in Homo sapiens (human) U937 cells
Type: cell-based
Settings: u-937

| SMILES | pIC50 |
| --- | --- |
| CO/N=C(\C)c1ccc2c(C(=O)Nc3c(Cl)cncc3Cl)ccc(OC)c2n1 | 6.678 |
| COc1ccc(C(=O)Nc2c(Cl)cncc2Cl)c2c1ncn2C | 5 |
